This is an account of results in patent US11578055B2, “Triazacyclododecansulfonamide (“TCD”)-based protein secretion inhibitors” (KEZAR LIFE SCIENCES, priority 2018, dated 2023).

Molecules are shown by their SMILES.

In data set [1] the test system is PD1 signal sequence plus 10 amino acids fused to Gaussia Luciferase (PD1-ss+10aa/Gaussia Luciferase). In words: Dox Induced PD1-ss-Gluc Assay. It is filed as cell-based. The conditions noted are these: 24 hr, Dox inducible, 293FRT/TO cells; read-out: 24 hr Dox Inducible PD1ssGluc 293FRT/TO: Mean IC50. The method, boiled down:
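Compound dilutions in DMSO/media containing doxycycline were applied to a stable, inducible 293 T-REx line carrying the luciferase fusion, then incubated at 37 °C, 5% CO2. Where stereochemistry is not drawn, values relate to isomer mixtures.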

Data set [2] has as its system full length TNFα (amino acids 1-233) fused to Gaussia Luciferase. In words: Dox Induced TNFα-FL-Gluc Assay. The conditions noted are these: 24 hr, Dox inducible, 293FRT/TO cells; read-out: 24 hr Dox Inducible TNFaFLGluc 293FRT/TO: Mean IC50. It counts as cell-based. A digest of the protocol: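 Compounds diluted in DMSO/medium with doxycycline were incubated at 37° C, 5% CO2 with 293 T-REx cells stably carrying a Tet-regulated TNFα(1-233)-Gaussia luciferase construct. Data for structures drawn without stereochemistry refer to stereoisomer mixtures.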

The test system of data set [3] is full length IL-2 (amino acids 1-153) fused to Gaussia Luciferase. Kind of data set: Dox Induced IL2-FL-Gluc Assay. It is filed as cell-based. The conditions noted are these: 24 hr, Dox inducible, 293FRT/TO cells; read-out: 24 hr Dox Inducible IL2FLGluc 293FRT/TO: Mean IC50. The method, boiled down:
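Compounds in DMSO/media with doxycycline were added to cells plated the previous day and incubated at 37° C, 5% CO2. Cells: stable Flp-In 293 T-REx line, Dox-regulated expression of IL-2 (aa 1-153) fused at its C-terminus to Gaussia luciferase.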

For data set [4], the system named is HER3 signal sequence plus 4 amino acids fused to Gaussia Luciferase (HER3-ss+4aa/Gaussia Luciferase). In words: Dox Induced HER3-ss-Gluc Assay. It counts as cell-based. The conditions noted are these: 24 hr, doxycycline induced, Flp-In 293 T-REx cells; read-out: 24 hr Dox Inducible Her3(ss + 4) Gluc 293FRT/TO: Mean 1050. A digest of the protocol:
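Stable Flp-In 293 T-REx line expressing HER3 signal sequence+4aa/Gaussia luciferase under doxycycline-inducible control. Cells plated the day before; compound dilutions added in doxycycline-containing medium and incubated at 37° C, 5% CO2.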

Data set [5] has as its system multiple myeloma cell line NCl-H929. In words: H929 Cell Viability Assay. It is filed as cell-based, human. The conditions noted are these: Homo sapiens, NCI-H929, 48 h, H929, Celltiter-Glo. The method, boiled down:
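Viability was determined by CellTiter-Glo luminescence after a 48 h, 37 °C exposure of NCI-H929 cells to serial compound dilutions in medium containing 10% FBS. Where stereochemistry is not shown, values refer to a mix of stereoisomers.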
For orientation: Cellular ATP, detected with luciferase, serves as a proxy for viable cell number.

For data set [6], the system named is multiple myeloma cell line U266B1. Kind of data set: U266 Cell Viability Assay. It counts as cell-based, human. The conditions noted are these: Homo sapiens, U-266; 48 hr, U266, Celltiter-Glo. A digest of the protocol:
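Viability was measured by CellTiter-Glo luminescence after 48 h compound exposure at 37° C, 5% CO2. The cells were U266B1 multiple myeloma cells grown in RPMI 1640 plus 10% FBS. Where stereochemistry is not shown, values apply to the stereoisomer mixture.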

Data set [7] is described as follows: In Vitro Microsome Stability Assay (human). It counts as in vitro ADME. The conditions noted are these: human liver microsomes, 30 min w/ NADPH. A digest of the protocol: (§1)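 Test article, added from a 0.25 mM DMSO stock, was incubated with liver microsomes (20 mg/mL stock) in 0.1 M potassium phosphate at 37° C, with the reaction started by NADPH. Samples were quenched with acetonitrile containing internal standard at 0 and 30 min and analysed by LC-MS/MS. Values are % remaining at 30 min versus 0 min, using IS-normalised AUC ratios.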
(Microsomes from liver hold many membrane-bound enzymes, among them those of drug oxidation.)

A short description of data set [8]: In Vitro Microsome Stability Assay (mouse). It counts as in vitro ADME. The conditions noted are these: mouse liver microsomes, 30 min w/ NADPH. The method, boiled down:
as §1

A short description of data set [9]: In Vitro Microsome Stability Assay (rat). It is filed as in vitro ADME. The conditions noted are these: rat liver microsomes, 30 min w/ NADPH. A digest of the protocol: as §1
A short description of data set [10]: In Vitro Microsome Stability Assay (monkey). It counts as in vitro ADME. The conditions noted are these: monkey liver microsomes, 30 min w/ NADPH. A digest of the protocol:
as §1

By EC50 is commonly meant the midpoint of the concentration-response curve. Turning to `COc1cccc(N2CCN(S(=O)(=O)N3CCCN(CC4CCCCC4)CCCN(S(=O)(=O)c4ccc(N(C)C)cc4)C[C@H](C)C3)CC2)c1` [A201, 4-{[(3S)-9-(cyclohexylmethyl)-5-{[4-(3-methoxyphenyl)piperazin-1-yl]sulfonyl}-3-methyl-1,5,9-triazacyclododecan-1-yl]sulfonyl}-N,N-dimethylaniline], the IC50 in [1] was determined as 118 nM; in data set [2], 7090 nM; in data set [3] it was 283 nM; in data set [4], 211 nM. Further, the concentration for a half-maximal effect (EC50) in data set [5] and in data set [6] was > 25000 nM in each case. For the same compound, the “Liver Microsome Stability-% Left after 30 min w/ NADPH (%) Human” value (from here on “Liver Microsome Stability-% Left … (%) Human”) in data set [7] came to 32.8%. In addition, the “Liver Microsome Stability-% Left after 30 min w/ NADPH (%) Mouse” value (shortened to “Liver Microsome Stability-% Left … (%) Mouse”) in data set [8] is given as 39.1%. In [9], the “Liver Microsome Stability-% Left after 30 min w/ NADPH (%) Rat” value (“Liver Microsome Stability-% Left … (%) Rat” below) is reported as 35.4%. In addition, the “Liver Microsome Stability-% Left after 30 min w/ NADPH (%) Monkey” value (“Liver Microsome Stability-% Left … (%) Monkey” below) in data set [10] was found to be 26.5%.

On to `COc1ccc(N2CCN(S(=O)(=O)N3CCCN(CC4CCCCC4)CCCN(S(=O)(=O)c4ccc(N(C)C)cc4)C[C@H](C)C3)CC2)cc1F` [A202, 4-{[(3S)-9-(cyclohexylmethyl)-5-{[4-(3-fluoro-4-methoxyphenyl)piperazin-1-yl]sulfonyl}-3-methyl-1,5,9-triazacyclododecan-1-yl]sulfonyl}-N,N-dimethylaniline], for which the IC50 in data set [1] was 56.6 nM; in data set [2] it was 2050 nM; in data set [3] it was 176 nM; in data set [4], 130 nM. The results for the EC50 in [5] and in [6] were 2910 nM and > 25000 nM, respectively. For the same compound, the “Liver Microsome Stability-% Left … (%) Human” value in data set [7] was 13.3%. In addition, the “Liver Microsome Stability-% Left … (%) Mouse” value in [8] is 55.0%. In data set [9], the “Liver Microsome Stability-% Left … (%) Rat” value amounted to 50.8%. In [10], the “Liver Microsome Stability-% Left … (%) Monkey” value came to 38.3%.

Take `COc1cc(F)ccc1N1CCN(S(=O)(=O)N2CCCN([C@@H](C)C3CCCCC3)CCCN(S(=O)(=O)c3ccc(N(C)C)cc3)C[C@H](C)C2)CC1` [A203]: the IC50 in data set [1] came out at 14.8 nM; in [2] it was 434 nM; in data set [3], 30.4 nM; in [4] it was 34.1 nM. Moreover, the figures for the EC50 in data set [5] and in [6] were 396 nM and > 25000 nM, respectively. Besides, the “Liver Microsome Stability-% Left … (%) Human” value in data set [7] was determined as 83.4%. In addition, in [8], the “Liver Microsome Stability-% Left … (%) Mouse” value amounted to 80.3%. For the same compound, the “Liver Microsome Stability-% Left … (%) Rat” value in data set [9] is reported as 78.7%. The “Liver Microsome Stability-% Left … (%) Monkey” value in data set [10] amounted to 77.9%.

Regarding `C[C@H]1CN(S(=O)(=O)c2ccc(N(C)C)cc2)CCCN(CC2CCC(F)CC2)CCCN(S(=O)(=O)N2CCc3cc(Cl)ccc3C2)C1` (stereo partly drawn) [A204, 4-{[(3S)-5-[(6-chloro-1,2,3,4-tetrahydroisoquinolin-2-yl)sulfonyl]-9-[(4-fluorocyclohexyl)methyl]-3-methyl-1,5,9-triazacyclododecan-1-yl]sulfonyl}-N,N-dimethylaniline], the IC50 stood at 58.4 nM in data set [1], 982 nM in [2], 158 nM in data set [3] and 134 nM in data set [4]. Besides, the EC50 in data set [5] is 1490 nM; in data set [6], > 25000 nM. Further, the “Liver Microsome Stability-% Left … (%) Human” value in [7] is 48.4%. For the same compound, the “Liver Microsome Stability-% Left … (%) Mouse” value in [8] amounted to 62.6%. Further, in [9], the “Liver Microsome Stability-% Left … (%) Rat” value came to 58.3%. In addition, the “Liver Microsome Stability-% Left … (%) Monkey” value in data set [10] came to 49.7%.

Turning to `C[C@H]1CN(S(=O)(=O)c2ccc(N(C)C)cc2)CCCN([C@@H](C)c2ccccc2)CCCN(S(=O)(=O)N2CCc3ccccc3C2)C1` [A205, N,N-dimethyl-4-{[(3S)-3-methyl-9-[(1 S)-1-phenylethyl]-5-(1,2,3,4-tetrahydroisoquinoline-2-sulfonyl)-1,5,9-triazacyclododecan-1-yl]sulfonyl}aniline], the IC50 in data set [1] is 129 nM; in data set [2], 1810 nM; in data set [3], 305 nM; in [4] it was 230 nM. The EC50 in data set [5] was 2360 nM; in [6] it was > 25000 nM. Also, the “Liver Microsome Stability-% Left … (%) Human” value in [7] came to 37.2%. Further, the “Liver Microsome Stability-% Left … (%) Mouse” value in [8] is 38.9%. Moreover, the “Liver Microsome Stability-% Left … (%) Rat” value in data set [9] amounted to 38.7%. Further, the “Liver Microsome Stability-% Left … (%) Monkey” value in data set [10] is 31.7%.

`C[C@H]1CN(S(=O)(=O)c2ccc(N(C)C)cc2)CCCN(CC2CCCCC2)CCCN(S(=O)(=O)N2CCN(c3ccc(F)cc3Cl)CC2)C1` [A206, 4-{[(3S)-5-{[4-(2-chloro-4-fluorophenyl)piperazin-1-yl]sulfonyl}-9-(cyclohexylmethyl)-3-methyl-1,5,9-triazacyclododecan-1-yl]sulfonyl}-N,N-dimethylaniline]: the IC50 in [1] turned out to be 17.4 nM; in data set [2], 395 nM; in [3], 39 nM; in data set [4], 38.2 nM. The EC50 in [5] was 657 nM; in [6], > 25000 nM. Moreover, the “Liver Microsome Stability-% Left … (%) Human” value in [7] was 54.7%. For the same compound, the “Liver Microsome Stability-% Left … (%) Mouse” value in data set [8] is given as 84.3%. Also, in data set [9], the “Liver Microsome Stability-% Left … (%) Rat” value is listed as 80.5%. Also, in data set [10], the “Liver Microsome Stability-% Left … (%) Monkey” value is recorded as 65%.

Turning to `COc1cc(F)ccc1N1CCN(S(=O)(=O)N2CCCN([C@@H](C)C3CCCCC3)CCCN(S(=O)(=O)c3ccc(N(C)C)cc3)C[C@H](C)C2)C[C@H]1C` [A207, 4-{[(3S)-9-[(1 S)-1-cyclohexylethyl]-5-{[(3 R)-4-(4-fluoro-2-methoxyphenyl)-3-methylpiperazin-1-yl]sulfonyl}-3-methyl-1,5,9-triazacyclododecan-1-yl]sulfonyl}-N,N-dimethylaniline], the IC50 in [1] stood at 7.93 nM; in [2], 221 nM; in data set [3], 10.6 nM; in data set [4] it was 18 nM. For the same compound, the values for the EC50 in [5] and in data set [6] were 106 nM and > 25000 nM, respectively. Besides, the “Liver Microsome Stability-% Left … (%) Human” value in [7] was determined as 62.7%. In addition, in data set [8], the “Liver Microsome Stability-% Left … (%) Mouse” value turned out to be 84.3%. For the same compound, the “Liver Microsome Stability-% Left … (%) Rat” value in data set [9] was 98.8%. In addition, in data set [10], the “Liver Microsome Stability-% Left … (%) Monkey” value came to 63.0%.

As for `COc1ccc([C@@H]2CCCN(S(=O)(=O)N3CCCN(CC4CCCCC4)CCCN(S(=O)(=O)c4ccc(N(C)C)cc4)C[C@H](C)C3)C2)cc1` [A208, 4-{[(3S)-9-(cyclohexylmethyl)-5-{[(3S)-3-(4-methoxyphenyl)piperidin-1-yl]sulfonyl]-3-methyl-1,5,9-triazacyclododecan-1-yl]sulfonyl}-N,N-dimethylaniline], the IC50 in data set [1] was 343 nM; in data set [2], > 25000 nM; in [3] it was 616 nM; in data set [4], 428 nM. In addition, the EC50 in data set [5] and in [6] was > 25000 nM throughout. For the same compound, the “Liver Microsome Stability-% Left … (%) Human” value in [7] came to 23.3%. The “Liver Microsome Stability-% Left … (%) Mouse” value in [8] is listed as 51.8%. For the same compound, the “Liver Microsome Stability-% Left … (%) Rat” value in data set [9] came to 68.9%. The “Liver Microsome Stability-% Left … (%) Monkey” value in data set [10] is reported as 37.5%.

For `COc1cccc([C@@H]2CCCN(S(=O)(=O)N3CCCN(CC4CCCCC4)CCCN(S(=O)(=O)c4ccc(N(C)C)cc4)C[C@H](C)C3)C2)c1` [A209], the IC50 was 327 nM in data set [1], > 25000 nM in [2], 673 nM in [3] and 498 nM in [4]. Further, the EC50 in data set [5] and in data set [6] was > 25000 nM in each case. In data set [7], the “Liver Microsome Stability-% Left … (%) Human” value is recorded as 22.6%. The “Liver Microsome Stability-% Left … (%) Mouse” value in data set [8] is given as 31.8%. Also, the “Liver Microsome Stability-% Left … (%) Rat” value in data set [9] was 44.7%. For the same compound, the “Liver Microsome Stability-% Left … (%) Monkey” value in data set [10] was determined as 45.7%.
